Measured values reported in patent US7541367B2, “3-benzoimidazolyl-pyrazolopyridines useful in treating kinase disorders” (Janssen Pharmaceutica, N.V., priority 2005, dated 2009).

How the values were obtained:
[1] = molecular target: T1, VEGF-R2 (Rattus norvegicus, UniProt O08775); experiment: VEGF-R2 kinase screening assay (33P-ATP FlashPlate); type: biochemical; settings: rat VEGF-R2 kinase domain; 10 μM ATP; 1 hr at 30° C;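 also: Read-out is ³³P incorporation from ³³P-γ-ATP into biotinylated peptide substrate captured on streptavidin FlashPlate, counted by scintillation, 1% DMSO final, inhibition scaled between per-plate maximum and minimum signals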
T1 construct: polyhistidine (N)

[2] = molecular target: T2, HER2 (Homo sapiens, UniProt P04626); experiment: HER2 kinase screening assay (33P-ATP FlashPlate); type: biochemical; settings: GST-HIS6 HER-2 aa 679 to 1255; 10 μM ATP; 1 hr at 30° C;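 also: Biotin-poly(GT) 4:1 peptide captured on streptavidin FlashPlate, 33P transfer from γ-ATP read by scintillation counting, lower incorporation means inhibition, 1% DMSO final, 100 µL reaction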
T2 construct: GST (Glutathione-S-Transferase) (N); HIS6 (N); thrombin cleavage site (N); purchased Proqinase, Freiburg, Germany

[3] = molecular target: T3, RET (Homo sapiens, UniProt P07949); experiment: RET kinase screening assay (33P-ATP FlashPlate); type: biochemical; settings: human RET kinase domain; 10 μM ATP; 1 hr at 30° C;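 also: biotinylated peptide substrate captured on streptavidin FlashPlate, 33P phosphate transfer read by scintillation counting, 1% DMSO, lower incorporation means inhibition, percent relative to per-plate maximum and minimum signals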
T3 construct: polyhistidine (N)
T3 sequence (P07949 658-1114 limits assumed): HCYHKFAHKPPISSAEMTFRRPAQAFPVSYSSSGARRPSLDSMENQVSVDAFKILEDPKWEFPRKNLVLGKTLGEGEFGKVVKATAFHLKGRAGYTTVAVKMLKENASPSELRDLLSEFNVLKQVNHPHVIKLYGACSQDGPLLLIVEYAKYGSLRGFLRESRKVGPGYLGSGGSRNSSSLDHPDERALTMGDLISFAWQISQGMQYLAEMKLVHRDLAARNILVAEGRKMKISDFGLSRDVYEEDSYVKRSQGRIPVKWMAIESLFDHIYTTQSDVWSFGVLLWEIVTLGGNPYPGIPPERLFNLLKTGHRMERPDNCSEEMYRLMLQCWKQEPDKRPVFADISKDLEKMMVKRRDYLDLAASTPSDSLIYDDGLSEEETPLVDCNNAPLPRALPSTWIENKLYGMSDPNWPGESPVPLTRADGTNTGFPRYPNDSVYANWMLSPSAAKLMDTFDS

[4] = molecular target: T4, Lyn kinase (Homo sapiens, UniProt P07948); experiment: Lyn Kinase Assay; type: biochemical; settings: 5 μM ATP
T4 construct: purchased Upstate Biotechnology, Lake Placid, N.Y
How it was run: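 Recombinant human Lyn kinase in pH 7.5 Tris buffer with EGTA, vanadate, β-mercaptoethanol and BSA reacted with compound for 40 min at 30° C. The radiolabelled product was captured on P30 filtermats after phosphoric acid stop and counted by scintillation. IC50 came from percent inhibition versus log concentration, using plate maximum/minimum signals.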

[5] = tested on: HeLa cervical adenocarcinoma; experiment: Cell Proliferation Inhibition Assay (14C-thymidine incorporation), HeLa; type: cell-based; settings: Homo sapiens, HeLa, HeLa cells;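 also: test compound in DMSO added to cells seeded in scintillating 96-well plates, DMSO-only wells as control, uptake of methyl 14C-thymidine into new DNA counted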

T4 sequence (P07948 whole entry): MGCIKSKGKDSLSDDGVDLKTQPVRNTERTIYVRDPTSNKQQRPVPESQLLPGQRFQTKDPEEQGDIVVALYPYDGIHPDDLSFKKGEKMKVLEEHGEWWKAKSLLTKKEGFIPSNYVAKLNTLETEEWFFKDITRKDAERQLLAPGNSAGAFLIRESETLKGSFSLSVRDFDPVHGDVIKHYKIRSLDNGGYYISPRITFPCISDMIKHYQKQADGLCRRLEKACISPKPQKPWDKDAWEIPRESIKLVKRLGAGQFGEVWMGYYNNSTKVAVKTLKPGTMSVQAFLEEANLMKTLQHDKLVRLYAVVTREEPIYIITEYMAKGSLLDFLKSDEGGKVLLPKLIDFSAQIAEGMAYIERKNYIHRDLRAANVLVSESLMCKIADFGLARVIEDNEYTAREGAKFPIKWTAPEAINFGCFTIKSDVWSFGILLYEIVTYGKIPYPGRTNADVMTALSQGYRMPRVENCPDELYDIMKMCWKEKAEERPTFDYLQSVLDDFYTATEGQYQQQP
T1 sequence (O08775 786-1343): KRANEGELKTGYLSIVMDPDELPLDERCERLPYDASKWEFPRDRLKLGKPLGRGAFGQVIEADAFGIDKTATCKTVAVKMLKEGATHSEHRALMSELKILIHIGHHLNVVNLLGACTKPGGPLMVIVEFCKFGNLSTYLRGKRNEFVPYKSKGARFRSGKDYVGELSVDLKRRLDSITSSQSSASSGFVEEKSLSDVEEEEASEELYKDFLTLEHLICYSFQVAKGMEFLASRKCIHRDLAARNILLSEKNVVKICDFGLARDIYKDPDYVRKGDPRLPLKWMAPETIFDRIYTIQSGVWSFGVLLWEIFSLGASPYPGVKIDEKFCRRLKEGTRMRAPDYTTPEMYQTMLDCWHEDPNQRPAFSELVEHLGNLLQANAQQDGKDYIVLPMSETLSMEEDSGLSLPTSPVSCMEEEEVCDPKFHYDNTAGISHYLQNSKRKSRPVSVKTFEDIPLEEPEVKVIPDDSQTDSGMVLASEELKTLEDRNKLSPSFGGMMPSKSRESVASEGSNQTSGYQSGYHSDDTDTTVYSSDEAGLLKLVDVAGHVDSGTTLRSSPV
T2 sequence (P04626 679-1255): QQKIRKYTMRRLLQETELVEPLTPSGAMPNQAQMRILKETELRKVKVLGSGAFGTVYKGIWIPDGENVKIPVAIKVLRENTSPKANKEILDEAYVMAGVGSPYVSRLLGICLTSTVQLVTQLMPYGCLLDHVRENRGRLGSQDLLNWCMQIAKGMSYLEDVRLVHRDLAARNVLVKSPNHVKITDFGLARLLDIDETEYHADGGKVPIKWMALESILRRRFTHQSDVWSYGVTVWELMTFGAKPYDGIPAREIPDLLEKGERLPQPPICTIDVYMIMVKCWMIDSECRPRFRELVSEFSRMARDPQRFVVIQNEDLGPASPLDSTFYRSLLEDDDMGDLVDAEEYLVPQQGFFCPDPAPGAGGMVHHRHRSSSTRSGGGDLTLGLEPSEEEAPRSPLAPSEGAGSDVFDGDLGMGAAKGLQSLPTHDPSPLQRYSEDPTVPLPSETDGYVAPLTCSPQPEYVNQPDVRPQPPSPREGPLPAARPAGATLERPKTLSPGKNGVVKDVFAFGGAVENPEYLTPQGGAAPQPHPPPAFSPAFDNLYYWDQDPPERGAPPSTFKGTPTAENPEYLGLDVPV

IC50 [1] [nM]	IC50 [2] [nM]	IC50 [3] [nM]	IC50 [4] [nM]	IC50 [5] [nM]	SMILES
> 100	4170	~1000	2.54	34.2	CCNCc1cncc(-c2cnc3[nH]nc(-c4nc5cc(OC)ccc5[nH]4)c3c2)c1 [Cpd 101, ethyl-{5-[3-(5-methoxy-1H-benzoimidazol-2-yl)-1H-pyrazolo[3,4-b]pyridin-5-yl]-pyridin-3-ylmethyl}-amine]
> 100	3820	> 100000	8.38	–	CNCc1cncc(-c2cnc3[nH]nc(-c4nc5cc(OC(F)(F)F)ccc5[nH]4)c3c2)c1 [Cpd 96, methyl-{5-[3-(5-trifluoromethoxy-1H-benzoimidazol-2-yl)-1H-pyrazolo[3,4-b]pyridin-5-yl]-pyridin-3-ylmethyl}-amine]
